# Data reported in PubChem BioAssay AID2060885 (Molecular Pharmacology Branch, DTP, NCI, 2025).
# System: NCI-H23 complex spheroids with HUVEC/MSC, viability
# Assay: Anticancer human tumor NCI-H23 cell line growth inhibition [RAS];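 note: spheroids exposed to compound for 7 days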;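 for viability, T/C: 100% = DMSO vehicle control viability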
# Conditions: for IC50: curve of first compound; for viability, T/C: stronger effect = lower value
# Procedure, shortened: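 Multi-cell-type spheroids: tumor cells plus HUVEC endothelial cells and mesenchymal stem cells. RAS-pathway inhibitors were combined with targeted agents, each dosed in half-log steps down from clinical Cmax, or from 10 microM when Cmax was unknown.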
# [1] = second compound 0.0316 µM, first compound 0.0316 µM
# [2] = second compound 0.0316 µM, first compound 0.1 µM
# [3] = second compound 0.0316 µM, first compound 0.316 µM
# [4] = second compound 0.0316 µM, first compound 1 µM
# [5] = second compound 0.0316 µM, first compound 3.16 µM
# [6] = second compound 0.0316 µM, first compound 10 µM
# [7] = second compound 0.1 µM, first compound 0.0316 µM
# [8] = second compound 0.1 µM, first compound 0.1 µM
# [9] = second compound 0.1 µM, first compound 0.316 µM
# [10] = second compound 0.1 µM, first compound 1 µM
# [11] = second compound 0.1 µM, first compound 3.16 µM
# [12] = second compound 0.1 µM, first compound 10 µM
# [13] = second compound 0.316 µM, first compound 0.0316 µM
# [14] = second compound 0.316 µM, first compound 0.1 µM
# [15] = second compound 0.316 µM, first compound 0.316 µM
# [16] = second compound 0.316 µM, first compound 1 µM
# [17] = second compound 0.316 µM, first compound 3.16 µM
# [18] = second compound 0.316 µM, first compound 10 µM
# [19] = second compound 1 µM, first compound 0.0316 µM
# [20] = second compound 1 µM, first compound 0.1 µM
# [21] = second compound 1 µM, first compound 0.316 µM
# [22] = second compound 1 µM, first compound 1 µM
# [23] = second compound 1 µM, first compound 3.16 µM
# [24] = second compound 1 µM, first compound 10 µM
# [25] = second compound 3.16 µM, first compound 0.0316 µM
# [26] = second compound 3.16 µM, first compound 0.1 µM
# [27] = second compound 3.16 µM, first compound 0.316 µM
# [28] = second compound 3.16 µM, first compound 1 µM
# [29] = second compound 3.16 µM, first compound 3.16 µM
# [30] = second compound 3.16 µM, first compound 10 µM
# [31] = second compound 10 µM, first compound 0.0316 µM
# [32] = second compound 10 µM, first compound 0.1 µM
# [33] = second compound 10 µM, first compound 0.316 µM
# [34] = second compound 10 µM, first compound 1 µM
# [35] = second compound 10 µM, first compound 3.16 µM
# [36] = second compound 10 µM, first compound 10 µM
compound,measurement,setting,value
Cc1nc(N2CCC3(CC2)COC(C)C3N)c(CO)nc1Sc1ccnc(N)c1Cl (stereo unspecified) + C#Cc1c(F)ccc2cc(O)cc(-c3ncc4c(N5CC6CCC(C5)N6)nc(OCC56CCCN5CC(F)C6)nc4c3F)c12,IC50,second compound 0.0316 µM,> 10000 nM
same,IC50,second compound 0.1 µM,769 nM
same,IC50,second compound 0.316 µM,391 nM
same,IC50,second compound 1 µM,216 nM
same,IC50,second compound 3.16 µM,66.2 nM
same,IC50,second compound 10 µM,< 31.6 nM
same,"viability, T/C",[1],101%
same,"viability, T/C",[2],110%
same,"viability, T/C",[3],68.5%
same,"viability, T/C",[4],62.7%
same,"viability, T/C",[5],42.8%
same,"viability, T/C",[6],48.3%
same,"viability, T/C",[7],115%
same,"viability, T/C",[8],110%
same,"viability, T/C",[9],64.8%
same,"viability, T/C",[10],48.6%
same,"viability, T/C",[11],44.2%
same,"viability, T/C",[12],41.5%
same,"viability, T/C",[13],106%
same,"viability, T/C",[14],95.2%
same,"viability, T/C",[15],51.4%
same,"viability, T/C",[16],45.5%
same,"viability, T/C",[17],36%
same,"viability, T/C",[18],39.5%
same,"viability, T/C",[19],78.7%
same,"viability, T/C",[20],60.7%
same,"viability, T/C",[21],45.2%
same,"viability, T/C",[22],35.3%
same,"viability, T/C",[23],35.2%
same,"viability, T/C",[24],32.6%
same,"viability, T/C",[25],57.8%
same,"viability, T/C",[26],45.7%
same,"viability, T/C",[27],35.8%
same,"viability, T/C",[28],29.6%
same,"viability, T/C",[29],30.9%
same,"viability, T/C",[30],26.9%
same,"viability, T/C",[31],38.1%
same,"viability, T/C",[32],35.2%
same,"viability, T/C",[33],31.7%
same,"viability, T/C",[34],26.1%
same,"viability, T/C",[35],26.8%
same,"viability, T/C",[36],18.2%
NC1c2ccccc2OC12CCN(c1cnc3c(N4CCCc5ncccc54)n[nH]c3n1)CC2 (stereo unspecified) + C#Cc1c(F)ccc2cc(O)cc(-c3ncc4c(N5CC6CCC(C5)N6)nc(OCC56CCCN5CC(F)C6)nc4c3F)c12,IC50,second compound 0.0316 µM,281 nM
same,IC50,second compound 0.1 µM,268 nM
same,IC50,second compound 0.316 µM,175 nM
same,IC50,second compound 1 µM,57 nM
same,IC50,second compound 3.16 µM,< 31.6 nM
same,IC50,second compound 10 µM,< 31.6 nM
same,"viability, T/C",[1],69.3%
same,"viability, T/C",[2],76.8%
same,"viability, T/C",[3],47.3%
same,"viability, T/C",[4],41.6%
same,"viability, T/C",[5],35.7%
same,"viability, T/C",[6],34%
same,"viability, T/C",[7],74.9%
same,"viability, T/C",[8],65%
same,"viability, T/C",[9],45.8%
same,"viability, T/C",[10],38.6%
same,"viability, T/C",[11],33.9%
same,"viability, T/C",[12],30.1%
same,"viability, T/C",[13],76.3%
same,"viability, T/C",[14],56.4%
same,"viability, T/C",[15],40.3%
same,"viability, T/C",[16],36.4%
same,"viability, T/C",[17],31.4%
same,"viability, T/C",[18],22.3%
same,"viability, T/C",[19],58.4%
same,"viability, T/C",[20],40.6%
same,"viability, T/C",[21],32.8%
same,"viability, T/C",[22],32.4%
same,"viability, T/C",[23],21.7%
same,"viability, T/C",[24],19.6%
same,"viability, T/C",[25],38.5%
same,"viability, T/C",[26],38.6%
same,"viability, T/C",[27],31.5%
same,"viability, T/C",[28],25.2%
same,"viability, T/C",[29],21%
same,"viability, T/C",[30],15.5%
same,"viability, T/C",[31],28.4%
same,"viability, T/C",[32],30.7%
same,"viability, T/C",[33],19%
same,"viability, T/C",[34],16.2%
same,"viability, T/C",[35],15.5%
same,"viability, T/C",[36],12.6%
Nc1ccn(C2OC(CO)C(O)C2(F)F)c(=O)n1 (stereo unspecified) + C#Cc1c(F)ccc2cc(O)cc(-c3ncc4c(N5CC6CCC(C5)N6)nc(OCC56CCCN5CC(F)C6)nc4c3F)c12,IC50,second compound 0.0316 µM,5.53 nM
same,IC50,second compound 0.1 µM,5.82 nM
same,IC50,second compound 0.316 µM,5.83 nM
same,IC50,second compound 1 µM,4.97 nM
same,IC50,second compound 3.16 µM,< 3.16 nM
same,IC50,second compound 10 µM,< 3.16 nM
same,"viability, T/C","second compound 0.0316 µM, first compound 0.00316 µM",79.1%
same,"viability, T/C","second compound 0.0316 µM, first compound 0.01 µM",19.3%
same,"viability, T/C",[1],9.28%
same,"viability, T/C",[2],9.72%
same,"viability, T/C",[3],8.73%
same,"viability, T/C",[4],9.82%
same,"viability, T/C","second compound 0.1 µM, first compound 0.00316 µM",86.3%
same,"viability, T/C","second compound 0.1 µM, first compound 0.01 µM",17.8%
same,"viability, T/C",[7],8.54%
same,"viability, T/C",[8],7.52%
same,"viability, T/C",[9],10.5%
same,"viability, T/C",[10],8.63%
same,"viability, T/C","second compound 0.316 µM, first compound 0.00316 µM",88.8%
same,"viability, T/C","second compound 0.316 µM, first compound 0.01 µM",15.8%
same,"viability, T/C",[13],7.89%
same,"viability, T/C",[14],5.29%
same,"viability, T/C",[15],6.95%
same,"viability, T/C",[16],7.88%
same,"viability, T/C","second compound 1 µM, first compound 0.00316 µM",74.8%
same,"viability, T/C","second compound 1 µM, first compound 0.01 µM",12.1%
same,"viability, T/C",[19],4.25%
same,"viability, T/C",[20],5%
same,"viability, T/C",[21],5.26%
same,"viability, T/C",[22],7.16%
same,"viability, T/C","second compound 3.16 µM, first compound 0.00316 µM",45.2%
same,"viability, T/C","second compound 3.16 µM, first compound 0.01 µM",5.88%
same,"viability, T/C",[25],3.82%
same,"viability, T/C",[26],2.55%
same,"viability, T/C",[27],3.3%
same,"viability, T/C",[28],3.59%
same,"viability, T/C","second compound 10 µM, first compound 0.00316 µM",23.2%
same,"viability, T/C","second compound 10 µM, first compound 0.01 µM",5.01%
same,"viability, T/C",[31],4.01%
same,"viability, T/C",[32],2.92%
same,"viability, T/C",[33],3.19%
same,"viability, T/C",[34],3.79%
